Data reported in patent US12428406B2 (PMV Pharmaceuticals, Inc., priority 2019, dated 2025).

Each molecule was assayed against T1, p53 Y220C (Homo sapiens, UniProt P04637, Y220C) (assay: In vitro DNA binding activity assay (HTRF / TR-FRET): stabilization of p53 Y220C and increase of its DNA binding activity). Details: recombinant His-tagged p53 Y220C DNA binding domain (aa 94-312), biotin-labeled consensus DNA, incubated at 27° C. or 29° C. for 60 min.
T1 construct: The recombinant protein was a truncation mutant containing only amino acids 94-312 of p53; made in house; host or cells: E. coli
Format: biochemical
Procedure, shortened: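 Compounds from 4.5 mM DMSO stocks, 3-fold serial dilutions; room-temperature incubations of 15 and 20 min. SC150 = concentration raising DNA binding by 50% over no-compound control.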

T1 sequence (P04637 94-312, change not shown): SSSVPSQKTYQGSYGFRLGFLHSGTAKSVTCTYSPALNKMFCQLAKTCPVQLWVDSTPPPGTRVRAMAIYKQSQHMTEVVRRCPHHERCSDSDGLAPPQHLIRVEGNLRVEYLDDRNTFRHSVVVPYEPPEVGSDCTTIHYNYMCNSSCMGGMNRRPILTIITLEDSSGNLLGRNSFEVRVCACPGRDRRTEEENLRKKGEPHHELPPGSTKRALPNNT

Compound	SC150 (concentration of the compound required to increase the DNA binding activity by 50%)
COc1cc(S(=O)(=O)CCO)ccc1NCC#Cc1cc2c(N[C@@H]3CCN(C)C[C@@H]3F)cccc2n1CC(F)(F)F [Compound 939A, 2-(4-{[3-(4-{[(3S,4R)-3-fluoro-1-methylpiperidin-4-yl]amino}-1-(2,2,2-trifluoroethyl)-1H-indol-2-yl)prop-2-yn-1-yl]amino}-3-methoxybenzenesulfonyl)ethan-1-ol]	+ (+ = 0 μM ≤ SC150 < 0.05 μM)
COc1cc(S(C)(=O)=O)ccc1NCC#Cc1cc2c(NC3CC4CCC(C3)N4C)cccc2n1CC(F)(F)F (stereo not shown) [Compound 990A, 2-{3-[(4-methanesulfonyl-2-methoxyphenyl)amino]prop-1-yn-1-yl}-N-{8-methyl-8-azabicyclo[3.2.1]octan-3-yl}-1-(2,2,2-trifluoroethyl)-1H-indol-4-amine]	+ (+ = 0 μM ≤ SC150 < 0.05 μM)
COc1cc(-c2ccncc2)ccc1NCC#Cc1cc2c(NC3CCN(C)CC3)cccc2n1CC(F)(F)F [Compound 504A, 2-(3-{[2-methoxy-4-(pyridin-4-yl)phenyl]amino}prop-1-yn-1-yl)-N-(1-methylpiperidin-4-yl)-1-(2,2,2-trifluoroethyl)-1H-indol-4-amine]	+ (+ = 0 μM ≤ SC150 < 0.05 μM)
CCOC(=O)c1ccc(NCC#Cc2cc3c(N[C@H]4CCN(C)C[C@H]4F)cccc3n2CC(F)(F)F)c(OC)c1 [Compound 840A, ethyl 4-((3-(4-(((3R,4S)-3-fluoro-1-methylpiperidin-4-yl)amino)-1-(2,2,2-trifluoroethyl)-1H-indol-2-yl)prop-2-yn-1-yl)amino)-3-methoxybenzoate]	+ (+ = 0 μM ≤ SC150 < 0.05 μM)
CNC(=O)c1ccc(NCC#Cc2cc3c(N[C@H]4CC[C@H](N5CCOCC5)CC4)cccc3n2CCF)c(OC)c1 [Compound 175A, 4-({3-[1-(2-fluoro-ethyl)-4-{[(1R,4R)-4-(morpholin-4-yl)cyclohexyl]amino}-1H-indol-2-yl]prop-2-yn-1-yl}amino)-3-methoxy-N-methylbenzamide]	++ (++ = 0.05 μM ≤ SC150 < 0.1 μM)
COc1cc(C(=O)O)ccc1NCC#Cc1cc2c(N[C@@H]3CCN(CC(=O)N(C)C)C[C@@H]3F)cccc2n1CC(F)(F)F [Compound 920A, 4-{[3-(4-{[(3S,4R)-1-[(dimethylcarbamoyl)methyl]-3-fluoropiperidin-4-yl]amino}-1-(2,2,2-trifluoroethyl)-1H-indol-2-yl)prop-2-yn-1-yl]amino}-3-methoxybenzoic acid]	+ (+ = 0 μM ≤ SC150 < 0.05 μM)
COc1cc(S(C)(=O)=O)ccc1NCC#Cc1cc2c(N[C@H]3C[C@@H](C)O[C@@H](C)C3)cccc2n1CC(F)(F)F [Compound 1027A, 2-{3-[(4-methanesulfonyl-2-methoxyphenyl)amino]prop-1-yn-1-yl}-N-[(2R,4R,6S)-2,6-dimethyloxan-4-yl]-1-(2,2,2-trifluoroethyl)-1H-indol-4-amine]	++ (++ = 0.05 μM ≤ SC150 < 0.1 μM)
CS(=O)(=O)c1ccc(NCC#Cc2cc3c(N[C@H]4CC[C@H](N5CC6(COC6)C5)CC4)cccc3n2CC(F)(F)F)c(OCCO)c1 [Compound 225A, 2-(5-methanesulfonyl-2-{[3-(4-{[(1R,4R)-4-{2-oxa-6-azaspiro[3.3]heptan-6-yl}cyclo-hexyl]amino}-1-(2,2,2-trifluoroethyl)-1H-indol-2-yl)prop-2-yn-1-yl]amino}phenoxy)ethan-1-ol]	+ (+ = 0 μM ≤ SC150 < 0.05 μM)
COc1cc(S(C)(=O)=O)ccc1NCC#Cc1cc2c(N[C@H]3CC[C@H](N4CC[S+]([O-])CC4)CC3)cccc2n1CC(F)(F)F [Compound 364A, 4-[(1R,4R)-4-[(2-{3-[(4-methanesulfonyl-2-methoxyphenyl)amino]prop-1-yn-1-yl}-1-(2,2,2-trifluoroethyl)-1H-indol-4-yl)amino]cyclohexyl]-1λ^4-thiomorpholin-1-one]	+ (+ = 0 μM ≤ SC150 < 0.05 μM)
COc1cc(C(=O)NC(C)CO)ccc1NCC#Cc1cc2c(N[C@@H]3CCN(C)C[C@@H]3F)cccc2n1CC(F)(F)F (stereo partly drawn) [Compound 1056A, 4-{[3-(4-{[(3S,4R)-3-fluoro-1-methylpiperidin-4-yl]amino}-1-(2,2,2-trifluoroethyl)-1H-indol-2-yl)prop-2-yn-1-yl]amino}-N-(1-hydroxypropan-2-yl)-3-methoxybenzamide]	+ (+ = 0 μM ≤ SC150 < 0.05 μM)
COc1cc(C(C)(C)C#N)ccc1NCC#Cc1cc2c(N[C@H]3CC[C@H](N4CC5(CCOCC5)C4)CC3)cccc2n1CC(F)(F)F [Compound 301A, 2-(3-methoxy-4-{[3-(4-{[(1R,4R)-4-{7-oxa-2-azaspiro[3.5]nonan-2-yl}cyclohexyl]amino}-1-(2,2,2-trifluoroethyl)-1H-indol-2-yl)prop-2-yn-1-yl]amino}phenyl)-2-methylpropanenitrile]	+ (+ = 0 μM ≤ SC150 < 0.05 μM)
CCNC(=O)c1ccc(NCC#Cc2cc3c(NC4CCN(CC(O)COC)CC4)cccc3n2CC(F)(F)F)c(OC)c1 (stereo not shown) [Compound 655A, N-ethyl-4-{[3-(4-{[1-(2-hydroxy-3-methoxypropyl)piperidin-4-yl]amino}-1-(2,2,2-trifluoroethyl)-1H-indol-2-yl)prop-2-yn-1-yl]amino}-3-methoxybenzamide]	+ (+ = 0 μM ≤ SC150 < 0.05 μM)
COc1cc(S(C)(=O)=O)ccc1NCC#Cc1cc2c(NC3CCN(C4COC4)CC3)cccc2n1CC(F)(F)F [Compound 678A, 2-{3-[(4-methanesulfonyl-2-methoxyphenyl)amino]prop-1-yn-1-yl}-N-[1-(oxetan-3-yl)piperidin-4-yl]-1-(2,2,2-trifluoroethyl)-1H-indol-4-amine]	+ (+ = 0 μM ≤ SC150 < 0.05 μM)
COCC(O)CN1CCC(Nc2cccc3c2cc(C#CCNc2ccc(S(C)(=O)=O)cc2OCC(F)(F)F)n3CC(F)(F)F)CC1 (stereo not shown) [Compound 645A, 1-(4-{[2-(3-{[4-methanesulfonyl-2-(2,2,2-trifluoroethoxy)phenyl]amino}prop-1-yn-1-yl)-1-(2,2,2-trifluoroethyl)-1H-indol-4-yl]amino}piperidin-1-yl)-3-methoxypropan-2-ol]	+ (+ = 0 μM ≤ SC150 < 0.05 μM)
COc1cc(C(=O)N2CCC(O)CC2)ccc1NCC#Cc1cc2c(NC3CCN(C)CC3)cccc2n1CC(F)(F)F [Compound 492A]	+ (+ = 0 μM ≤ SC150 < 0.05 μM)
CNC(=O)c1ccc(NCC#Cc2cc3c(N[C@H]4CC[C@H](N5CCC6(CCO6)CC5)CC4)cccc3n2CC(F)(F)F)c(OC)c1 [Compound 385A, 3-methoxy-N-methyl-4-{[3-(4-{[(1R,4R)-4-{1-oxa-7-azaspiro[3.5]nonan-7-yl}cyclohexyl]amino}-1-(2,2,2-trifluoroethyl)-1H-indol-2-yl)prop-2-yn-1-yl]amino}benzamide]	+ (+ = 0 μM ≤ SC150 < 0.05 μM)
